Results: patent publication US20240374738A1, “BIFUNCTIONAL COMPOUND CAPABLE OF DEGRADING RECEPTOR TYROSINE KINASE AND APPLICATION THEREOF” (TAIBIDI PHARMACEUTICAL TECHNOLOGY (SHIJIAZHUANG) CO., LTD., priority 2023, published 2024)

Legend:
Assay type in all cases: cell-based
[1] = test system: MKN45; test: Growth inhibition of gastric cancer cells MKN45 (CCK-8); conditions: Homo sapiens, MKN-45, half inhibitory concentration, 72 hours
Method: (§1) Inoculate gastric cancer cells (SNU5 or MKN45) into a 96 well plate at a concentration of […], with 100 μl added to each well. Incubate for 30 minutes. Observe the cell status under a microscope. Prepare compounds, weigh a certain amount of the series compounds or reference drug cabozantinib of this patent, first prepare a high concentration mother liquor with pure DMSO, and use gradient dilution method to prepare a concentration of 200 μM, 60 μM, 20 μM, 6 μM, 2 μM, 600 nM, 200 nM, 0 nM drug solution, shake to make it fully mixed. The control group was prepared with cabozantinib using the same solvent and method.
(§2) After preparation, add 1 μl of drug solution to each well of the 96 well plate, and then add 100 μl of culture medium. Repeat each dose three times. Gently shake to allow the cells and medication to come into full contact and incubate in the incubator for 72 hours. 72 hours later, remove and color with CCK-8 reagent kit. Add 20 μl of CCK-8 reagent to each well, gently shake well, and incubate in the incubator for 1 hour. After 1 hour, remove and measure the absorbance of each well using an enzyme-linked immunosorbent assay (ELISA) reader at a wavelength of 450 nm.
(§3) According to the formula: Cell growth inhibition rate=[1−(absorbance of experimental group absorbance of culture medium control group)/(absorbance of blank control group−absorbance of culture medium control group)]×100%. It can be concluded that the compound has the ability to inhibit the growth of gastric cancer cells at the current dose and time.
(§4) Draw a graph based on the gradient of concentration and use GraphPad Prism 9 software (GraphPad Software, La Jolla, CA) to calculate the maximum inhibitory concentration (IC50) at 50%.
(§5) Referring to steps 1 and 2 of this embodiment, the inhibitory effect of the compound of the present invention on the growth of cancer cells and the degradation effect of target proteins were measured, and the following results were obtained (see Table 2 below).
(§6) The growth inhibitory effects of the compound of the present invention on tumor cell lines MKN45 and SNU5 were measured. The activity is expressed as half inhibitory concentration (C50). The results are shown in Table 2 below; When the half inhibitory concentration is less than or equal to 100 nM, the compound activity is labeled as “++++”; When the half inhibitory concentration is greater than 100 nM and less than 500 nM, the compound activity is labeled as […] and less than 1000 nM, the compound activity is labeled as “++”; When the half inhibitory concentration is greater than 1000 nM and less than 3000 nM, the compound activity is marked as “+”; When the half inhibitory concentration is greater than 3000 nM, the compound activity is marked as […]

[2] = test system: SNU5; test: Growth inhibition of gastric cancer cells SNU5 (CCK-8); conditions: Homo sapiens, SNU-5, half inhibitory concentration, 72 hours
Method: as §1, §2, §3, §4, §5, §6

[3] = target: DDR1 (Homo sapiens, UniProt Q08345); test: Degradation of DDR1 in tumor cell MKN45 (Western blot); parameters: The degradation activity of the compounds against DDR1 in the MKN45 cell line; endogenous in cells; host or cells: MKN45; conditions: MKN-45, maximum degradation percentage, MKN45 cells, 24 hours
Sequence of DDR1 (Q08345 19-913): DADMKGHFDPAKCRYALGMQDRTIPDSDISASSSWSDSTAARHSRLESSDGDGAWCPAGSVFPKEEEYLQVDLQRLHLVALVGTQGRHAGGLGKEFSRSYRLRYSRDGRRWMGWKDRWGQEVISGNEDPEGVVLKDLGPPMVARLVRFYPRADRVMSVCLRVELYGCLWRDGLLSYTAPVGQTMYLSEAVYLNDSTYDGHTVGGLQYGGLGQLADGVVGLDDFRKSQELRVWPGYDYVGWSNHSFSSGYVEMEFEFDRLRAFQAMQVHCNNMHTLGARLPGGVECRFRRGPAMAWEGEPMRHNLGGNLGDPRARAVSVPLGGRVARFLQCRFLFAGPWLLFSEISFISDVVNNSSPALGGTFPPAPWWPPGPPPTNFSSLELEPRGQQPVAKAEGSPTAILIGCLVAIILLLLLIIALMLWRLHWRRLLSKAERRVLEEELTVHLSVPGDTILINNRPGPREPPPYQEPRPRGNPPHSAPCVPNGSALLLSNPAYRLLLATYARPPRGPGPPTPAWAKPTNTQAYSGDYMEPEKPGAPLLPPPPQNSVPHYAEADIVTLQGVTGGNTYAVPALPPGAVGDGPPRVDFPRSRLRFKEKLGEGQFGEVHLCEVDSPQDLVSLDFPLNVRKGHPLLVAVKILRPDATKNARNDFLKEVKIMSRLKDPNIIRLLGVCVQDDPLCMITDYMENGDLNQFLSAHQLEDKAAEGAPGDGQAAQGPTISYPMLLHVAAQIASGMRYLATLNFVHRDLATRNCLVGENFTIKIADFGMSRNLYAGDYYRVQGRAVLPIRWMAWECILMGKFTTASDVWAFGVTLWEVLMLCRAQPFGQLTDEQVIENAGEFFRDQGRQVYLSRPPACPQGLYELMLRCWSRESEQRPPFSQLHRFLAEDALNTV
Method: Western blot experiment: Take gastric cancer cells (MKN45) and inoculate them into a 6-well plate at a concentration of […], adding 2 ml to each well and incubating for 24 hours.
The next day, observe the cells under a microscope to confirm their status. Prepare compounds, weigh a certain amount of the series compounds or reference drug cabozantinib from this patent, first prepare a high concentration mother liquor with pure DMSO, and use gradient dilution method to prepare compound concentrations of 2 mM, 200 μM, 100 μM, 20 μM, 2 μM, 200 nM, and 0 nM. The final concentration of DMSO is 0.5%. Shake to thoroughly mix. Add 10 μl of solution to each well. After incubation for 24 hours, remove the cells and use a pipette to aspirate the suspended cells into a 1.5 ml centrifuge tube. Centrifuge at 5000 rpm for 10 minutes to precipitate the cells. Carefully remove the cell precipitate from the culture medium, add 1 ml of PBS and shake slightly. After repeated cleaning for 3 times, dry the residue. Add 150 μl of RIPA lysate pre mixed with 1% PMSF, blow to allow the lysate to fully contact the cells, and incubate on ice for 10 minutes. Centrifuge at 12000 rpm for 10 minutes, extract the supernatant, use the BCA protein quantification kit to determine and homogenize the sample loading.
Mix BCA-A in a 50:1 ratio Prepare working solution with B solution, dilute the sample by 5 times, then pipette 20 μl onto a 96 well ELISA plate. Add 200 μl of pre mixed BCA working solution and incubate at 37° C. for 20 minutes. Measure the A562 nm absorbance value using an ELISA reader and substitute it into the protein standard curve formula to obtain the sample concentration. After calculating the required volume for loading […] of sample, divide the sample into 1.5 ml centrifuge tubes. Add 10 μl of sample buffer to each tube and mix well. Heat in a 95° C. metal bath for 5 minutes to denature the protein.
Take 4-20% gradient pre adhesive and fix it on the adhesive rack. Add electrophoresis solution to the slot and remove the comb, Marker and protein samples were loaded, and after 30 minutes of electrophoresis at 80V, the voltage was adjusted to 120V for electrophoresis, The marker band stops electrophoresis at the forefront of the gel. Take out the adhesive block and cut it to the appropriate size, The PVDF membrane was cut and activated in methanol, and after activation, the PVDF membrane was equilibrated in a membrane transfer equilibrium solution for 1 minute. Using sponge pads The sequence of PVDF film, adhesive, and sponge pad is placed in the splint and placed in the eBlot equipment for rapid wet rotation. Remove the membrane and seal it in 5% skim milk powder dissolved in 1×TBST for 1 hour. Cut the membrane according to the molecular weight of the target protein and internal reference protein, and place it in primary antibody diluted with 1×TBST. Shake overnight at 4° C.
The next day, transfer the band to 1×TBST for 3 washes, then add a specific dilution of the secondary antibody and shake it for 1.5 hours. Transfer the band again to 1×TBST for 3 washes, prepare ECL color solution, place the membrane in the imaging system, cover the surface with ECL color solution, and take photos of the membrane using the imaging system.
Using the SHST analysis system to analyze the results, measure the grayscale values of each band of the target protein and internal reference protein. Normalize the grayscale values of the target protein/corresponding lane GAPDH grayscale values, and perform quantitative analysis according to the protein amount=experimental group grayscale value/blank control group grayscale value.
The activity of the compound of the present invention in degrading DDR in tumor cell line MKN45 was measured. […]

Row | Structure (SMILES) | IC50 [1] | IC50 [2] | Dmax [3]
1 | COc1cc2c(Oc3ccc(NC(=O)C4(C(=O)Nc5ccc(F)cc5)CC4)cc3)ccnc2cc1N1CCC(CN2CCN(CC(=O)Nc3cccc4c3CN(C3CCC(=O)NC3=O)C4=O)CC2)CC1 (stereo not drawn) [TPD5901] | ≤ 0.1 µM | ≤ 0.1 µM | > 85%
2 | COc1cc2c(Oc3ccc(NC(=O)C4(C(=O)Nc5ccc(F)cc5)CC4)cc3)ccnc2cc1N1CCC(N2CCN(C(=O)CCOCC(=O)N[C@H](C(=O)N3C[C@H](O)C[C@H]3C(=O)NCc3ccc(-c4scnc4C)cc3)C(C)(C)C)CC2)CC1 [TPD5495] | 0.1 to 0.5 µM | 0.1 to 0.5 µM | 75 to 85%
3 | O=C1CCC(N2C(=O)c3ccc(N4CCN(CCC5CCN(CCNC(=O)c6ccc(-c7cnc8ncc(Cc9ccc%10ncccc%10c9)n8n7)cc6F)CC5)CC4)cc3C2=O)C(=O)N1 (stereo not drawn) [TPD7022] | 0.1 to 0.5 µM | 0.1 to 0.5 µM | 65 to 75%
4 | COc1cc2c(Oc3ccc(NC(=O)C4(C(=O)Nc5ccc(F)cc5)CC4)cc3)ccnc2cc1N1CCC(CN2C3CC2CN(CCC#Cc2ccc4c(c2)CN(C2CCC(=O)NC2=O)C4=O)C3)CC1 (stereo not drawn) [TPD12236] | ≤ 0.1 µM | ≤ 0.1 µM | 75 to 85%
5 | COc1cc2c(Oc3ccc(NC(=O)C4(C(=O)Nc5ccc(F)cc5)CC4)cc3)ccnc2cc1COCCN1CCN(CCNc2cccc3c2C(=O)N(C2CCC(=O)NC2=O)C3=O)CC1 (stereo not drawn) [TPD5316] | 0.5 to 1 µM | 0.5 to 1 µM | 75 to 85%
6 | COc1cc2c(Oc3ccc(NC(=O)C4(C(=O)Nc5ccc(F)cc5)CC4)cc3)ccnc2cc1N1CCC(CN2C[C@@H]3C[C@H]2CN3CC(=O)Nc2ccc3c(c2)CN(C2CCC(=O)NC2=O)C3=O)CC1 (stereo partly drawn) [TPD12216] | 0.5 to 1 µM | ≤ 0.1 µM | > 85%
7 | COc1cc2c(Oc3ccc(NC(=O)C4(C(=O)Nc5ccc(F)cc5)CC4)cc3)ccnc2cc1N1CCC(CN2CC(N[C@H](C(=O)N3C[C@H](O)C[C@H]3C(=O)NCc3ccc(-c4scnc4C)cc3)C(C)(C)C)C2)CC1 [TPD5431] | 1 to 3 µM | 1 to 3 µM | 65 to 75%
8 | COc1cc2c(Oc3ccc(NC(=O)C4(C(=O)Nc5ccc(F)cc5)CC4)cc3)ccnc2cc1COCCN1CCC(CCNc2cccc3c2C(=O)N(C2CCC(=O)NC2=O)C3=O)CC1 (stereo not drawn) [TPD5313] | 0.1 to 0.5 µM | 0.1 to 0.5 µM | 65 to 75%
9 | O=C1CCC(N2Cc3c(NC(=O)CCN4CC5CC(C4)N5CC4CCN(c5cc6nccc(Oc7ccc(NC(=O)C8(C(=O)Nc9ccc(F)cc9)CC8)cc7)c6cc5OC(F)(F)F)CC4)cccc3C2=O)C(=O)N1 (stereo not drawn) [TPD12149] | ≤ 0.1 µM | ≤ 0.1 µM | 75 to 85%
10 | O=C1CCC(N2Cc3cc(NC(=O)CN4C[C@@H]5C[C@H]4CN5CC4CCN(c5cc6nccc(Oc7ccc(NC(=O)C8(C(=O)Nc9ccc(F)cc9)CC8)cc7)c6cc5F)CC4)ccc3C2=O)C(=O)N1 (stereo partly drawn) [TPD12205] | ≤ 0.1 µM | ≤ 0.1 µM | 65 to 75%
11 | COc1cc2c(Oc3ccc(NC(=O)C4(C(=O)Nc5ccc(F)cc5)CC4)cc3)ccnc2cc1N1CCC(CN2C[C@H]3C[C@@H]2CN3CCNc2cc3c(cn2)C(=O)N(C2CCC(=O)NC2=O)C3)CC1 (stereo partly drawn) [TPD12097] | ≤ 0.1 µM | ≤ 0.1 µM | 65 to 75%
12 | COc1cc2c(Oc3ccc(NC(=O)C4(C(=O)Nc5ccc(F)cc5)CC4)cc3)ccnc2cc1-c1cnn(C2CCN(C(=O)CCCCC(=O)N[C@H](C(=O)N3C[C@H](O)C[C@H]3C(=O)NCc3ccc(-c4scnc4C)cc3)C(C)(C)C)CC2)c1 [TPD5505] | 1 to 3 µM | 0.5 to 1 µM | 75 to 85%
13 | COc1cc2c(Oc3ccc(NC(=O)C4(C(=O)Nc5ccc(F)cc5)CC4)cc3)ccnc2cc1N1CCC(N2CCC(C(=O)N[C@H](C(=O)N3C[C@H](O)C[C@H]3C(=O)NCc3ccc(-c4scnc4C)cc3)C(C)(C)C)CC2)CC1 [TPD5420] | 1 to 3 µM | 0.5 to 1 µM | 65 to 75%
14 | COc1cc2c(Oc3ccc(NC(=O)C4(C(=O)Nc5ccc(F)cc5)CC4)cc3)ccnc2cc1NCC(=O)N[C@H](C(=O)N1C[C@H](O)C[C@H]1C(=O)NCc1ccc(-c2scnc2C)cc1)C(C)(C)C [TPD5417] | 0.5 to 1 µM | 1 to 3 µM | 65 to 75%
15 | COc1cc2c(Oc3ccc(NC(=O)C4(C(=O)Nc5ccc(F)cc5)CC4)cc3)ccnc2cc1N1CCC(N2CC(C(=O)N[C@H](C(=O)N3C[C@H](O)C[C@H]3C(=O)NCc3ccc(-c4scnc4C)cc3)C(C)(C)C)C2)CC1 [TPD5432] | 0.1 to 0.5 µM | ≤ 0.1 µM | 75 to 85%
16 | COc1cc2c(Oc3ccc(NC(=O)C4(C(=O)Nc5ccc(F)cc5)CC4)cc3)ccnc2cc1NCC(=O)N1CCC(CN2CCN(c3ccc(NC4CCC(=O)NC4=O)nc3F)CC2)CC1 (stereo not drawn) [TPD5774] | 0.1 to 0.5 µM | 0.5 to 1 µM | > 85%
17 | O=C1CCC(N2Cc3cc(NC(=O)CN4C5CC4CN(CC4CCN(c6cc7nccc(Oc8ccc(NC(=O)C9(C(=O)Nc%10ccc(F)cc%10)CC9)cc8)c7cc6F)CC4)C5)ncc3C2=O)C(=O)N1 (stereo not drawn) [TPD12088] | 0.1 to 0.5 µM | ≤ 0.1 µM | 65 to 75%
18 | O=C1CCC(N2Cc3cc(C#CCCN4CC5CC(C4)N5CC4CCN(c5cc6nccc(Oc7ccc(NC(=O)C8(C(=O)Nc9ccc(F)cc9)CC8)cc7)c6cc5F)CC4)ccc3C2=O)C(=O)N1 (stereo not drawn) [TPD12237] | ≤ 0.1 µM | ≤ 0.1 µM | 65 to 75%
19 | COc1cc2c(Oc3ccc(NC(=O)C4(C(=O)Nc5ccc(F)cc5)CC4)cc3)ccnc2cc1NC(=O)CC1CCN(C(=O)CN2CCN(c3ccc4c(c3)C(=O)N(C3CCC(=O)NC3=O)C4=O)CC2)CC1 (stereo not drawn) [TPD5745] | 0.5 to 1 µM | 0.5 to 1 µM | 65 to 75%
20 | COc1cc2c(Oc3ccc(NC(=O)C4(C(=O)Nc5ccc(F)cc5)CC4)cc3)ccnc2cc1N1CCC(OCCC(=O)N[C@H](C(=O)N2C[C@H](O)C[C@H]2C(=O)NCc2ccc(-c3scnc3C)cc2)C(C)(C)C)CC1 [TPD5412] | 0.1 to 0.5 µM | 0.1 to 0.5 µM | 65 to 75%
